We go through one molecule from PMC13249053, “Mechanism of auranofin toxicity: Inhibition of tetrahydrobiopterin metabolism” (Toxicology and applied pharmacology, 2025).

Where “and” joins values, the source holds several entries; their conditions need not be identical. Equal values may be shown once. Read-outs that look alike come from different tables or passages of the source.

What is called IC50 is the concentration that inhibits the measured activity by half.

For assay [1], the target named is T1, SPR (Homo sapiens, UniProt P35270). Nature of the assay: Sepiapterin reduction by recombinant SPR (absorbance at 420 nm). Details: made in house. In kind it is biochemical. The method, then:
(§1) Sepiapterin reductase activity was assayed by measuring decreases in sepiapterin absorbance at 420 nm as described by Kato ([Kato, 1971]) with some modifications. Briefly, standard reaction mixes contained 100 mM potassium phosphate buffer, pH 7.0, 100 μM NADPH, 50 μM sepiapterin and 1 μg of enzyme protein in a final volume of 0.2 ml. Changes in absorbance of sepiapterin were monitored using a Spectramax M5 microplate reader (Molecular Devices, Sunnyvale, CA). […] Chemical redox cycling by SPR was assayed by measuring the formation of superoxide anion in the presence of menadione as previously described ([Yang et al., 2013]). […] Superoxide anion was measured spectrophotometrically by the reduction of acetylated cytochrome c at 550 nm. DHFR activity was measured as previously described ([Whitsett et al., 2013]) with some modifications. […] Enzyme activity was monitored by decreases in absorbance of NADPH at 340 nm using a microplate reader. […]
(§2) Fig. 5. […] SPR was measured in enzyme assays by decreases in sepiapterin absorbance at 420 nm as described in the Materials and Methods. DHFR activity in enzyme assays was measured by decreases in absorbance of NADPH at 340 nm. […] Redox cycling was measured spectrophotometrically by the reduction of acetylated cytochrome c at 550 nm during the formation of superoxide anion in enzyme assays in the presence of 100 μM menadione.

Assay [2] deals with T1, SPR. Nature of the assay: Chemical (menadione) redox cycling by recombinant SPR, superoxide anion formation. Also on record: made in house. The conditions noted are these: acetylated cytochrome c reduction at 550 nm, pH 7.8, read-out: IC50, inhibition of chemical redox cycling (superoxide anion production) by recombinant SPR. The class given is biochemical. The method, then: as §1, §2

The target in assay [3] is T2, SPR (Rattus norvegicus, UniProt P18297).
T2 construct: endogenous in cells; host or cells: PC12
T2 sequence (P18297 whole entry): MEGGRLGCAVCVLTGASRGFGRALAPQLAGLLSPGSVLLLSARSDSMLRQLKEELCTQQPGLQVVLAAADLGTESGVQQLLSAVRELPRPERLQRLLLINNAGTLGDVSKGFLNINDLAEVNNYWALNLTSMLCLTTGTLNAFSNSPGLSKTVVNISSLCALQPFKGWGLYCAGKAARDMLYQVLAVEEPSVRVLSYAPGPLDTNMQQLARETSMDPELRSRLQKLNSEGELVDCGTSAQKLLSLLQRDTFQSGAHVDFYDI
In words: Cellular SPR activity: BH2 formation from sepiapterin in the presence of methotrexate, PC12 cells. The class given is cell-based. The conditions noted are these: PC12 (rat pheochromocytoma); with methotrexate. How it is done:
(§3) The growth medium was then removed and the cells incubated with growth medium containing 100 μM sepiapterin. […] BH2 and BH4 were then analyzed on a Jasco high-performance liquid chromatography system (Easton, MD) fitted with a Maxsil-10 C18 column (250 × 4 mm; Phenomenex, Torrance, CA). […] Cell viability following drug treatments was greater than 95 %.

The target of assay [4] is T3, DHFR (Homo sapiens, UniProt P00374).
T3 sequence (P00374 1-187): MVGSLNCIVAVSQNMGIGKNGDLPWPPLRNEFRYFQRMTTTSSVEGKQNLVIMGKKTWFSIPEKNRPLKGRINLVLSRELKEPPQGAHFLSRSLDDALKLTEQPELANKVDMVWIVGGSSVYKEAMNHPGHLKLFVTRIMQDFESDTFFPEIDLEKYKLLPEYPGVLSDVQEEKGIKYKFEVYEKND
In words: Cellular DHFR activity: BH4 formation from BH2, human cell lines. In kind it is cell-based. Details: endogenous in cells; host or cells: HaCaT, Jurkat, BeWo, SKNMC, CX-1. The method, then: Metabolic products of sepiapterin (BH2 and BH4) in intact cells and cell lysates were measured using HPLC as previously described ([Ferre and Naylor, 1988]) with some modifications ([Yang et al., 2013]; [Yang et al., 2015]). Briefly, cells in six-well culture dishes were grown until 60–70 % confluent (~1 × 10^6 cells/well). The growth medium was then removed and the cells incubated with growth medium containing 100 μM sepiapterin. After 3 h, cells were harvested, centrifuged (1500 g, 10 min), and pellets suspended in 200 μl of lysis buffer (50 mM Tris-HCl, pH 7.4, 137 mM NaCl, 0.5 % Nonidet P-40 (NP-40), 0.5 mM EDTA) for 20 min on ice. […] Thirty min later, 50 μl of 1 M H3PO4 was added to the supernatants and the precipitated proteins removed by centrifugation (15,000 g, 3 min). After standing for 10 min at room temperature, excess iodine was reduced by the addition of 25 μl of 57 mM ascorbic acid to the reaction mix. BH2 and BH4 were then analyzed on a Jasco high-performance liquid chromatography system (Easton, MD) fitted with a Maxsil-10 C18 column (250 × 4 mm; Phenomenex, Torrance, CA). Fluorescence was monitored using a Jasco FP-2020 spectrofluorometer with excitation and emission wavelengths set at 362 and 435 nm, respectively ([Yang et al., 2013]; [Yang et al., 2015]).
Fig. 8. […] DHFR enzyme activity in the cells was assayed by the metabolism of BH2 to BH4. Upper panels. HaCaT cells were treated with control medium or medium containing increasing concentrations of auranofin for 2 h followed by the addition of 200 μM BH2. After an additional 3 h, cells were rinsed with PBS and BH2 and BH4 analyzed by HPLC as described in the Materials and Methods. Lower panels. […] Cells were treated with the drug for increasing periods of time (0–2 h) followed by 200 μM BH2. After an additional 3 h, cells were rinsed with PBS and analyzed for BH2 and BH4 content.

Assay [5] concerns the target T4, DHFR (Mus musculus, UniProt P00375).
T4 construct: endogenous in cells; host or cells: RAW264.7
T4 sequence (P00375 1-187): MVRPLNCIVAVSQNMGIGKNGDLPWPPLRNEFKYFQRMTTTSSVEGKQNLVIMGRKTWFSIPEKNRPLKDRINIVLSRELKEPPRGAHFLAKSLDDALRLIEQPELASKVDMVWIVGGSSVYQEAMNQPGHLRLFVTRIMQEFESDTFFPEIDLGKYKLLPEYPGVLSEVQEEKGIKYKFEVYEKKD
Nature of the assay: Cellular DHFR activity: BH4 formation from BH2, RAW264.7 cells. The class given is cell-based. The conditions noted are these: RAW264.7 (mouse macrophage). How it is done:
as §3

T1 sequence (P35270 whole entry): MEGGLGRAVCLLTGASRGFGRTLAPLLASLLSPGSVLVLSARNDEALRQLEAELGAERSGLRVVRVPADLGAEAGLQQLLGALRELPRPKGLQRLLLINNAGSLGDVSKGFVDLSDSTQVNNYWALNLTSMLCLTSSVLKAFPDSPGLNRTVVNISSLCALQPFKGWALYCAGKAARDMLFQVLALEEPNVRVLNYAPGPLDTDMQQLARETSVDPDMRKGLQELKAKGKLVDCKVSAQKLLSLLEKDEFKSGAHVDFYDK

As for `CC[PH](CC)(CC)[Au][S][C@@H]1O[C@H](COC(C)=O)[C@@H](OC(C)=O)[C@H](OC(C)=O)[C@H]1OC(C)=O` [auranofin, 2,3,4,6-tetra-O-acetyl-1-thio-β-D-glucopyranosato-S-triethyl phosphine gold], the “recombinant SPR activity versus control” value on SPR [1] (10 μM auranofin, n = 3, P < 0.05) is “Significantly different”. Moreover, the IC50 at SPR [1] (50 μM sepiapterin, 100 μM NADPH, pH 7.0, auranofin added 10 min before, read-out: IC50, inhibition of sepiapterin reduction by recombinant SPR) was 1.5 µM and 1.53 µM; on SPR [2] it was 0.6 µM; on SPR [3], 1 ± 0.11 µM; on DHFR [4] (BeWo (human choriocarcinoma), BH4 formation from BH2, read-out: DHFR IC50, BeWo cells) it was 3.9 ± 0.15 µM; on DHFR [4] (CX-1 (human colon adenocarcinoma), BH4 formation from BH2, read-out: DHFR IC50, CX-1 cells) it was 7.3 ± 0.1 µM; at DHFR [4] (HaCaT (human keratinocytes), auranofin 2 h, then 200 μM BH2 3 h, read-out: DHFR IC50, HaCaT cells), 6.3 ± 0.75 µM. The IC50 on DHFR [4] (Jurkat (human leukemia), BH4 formation from BH2, read-out: DHFR IC50, Jurkat cells) was determined as 5.4 ± 0.07 µM; at DHFR [4] (SKNMC (human neuroblastoma), BH4 formation from BH2, read-out: DHFR IC50, SKNMC cells), 15.2 ± 0.53 µM; on DHFR [5], 17.2 ± 0.63 µM. The “time of pretreatment to maximal inhibition of cellular DHFR” value on DHFR [4] (HaCaT cells, 20 μM auranofin) turned out to be 2 h.
